Where a name gives a salt, the structure may show the parent alone. Read-outs that look alike come from different tables or passages of the source.
Target: T1, horseradish peroxidase (HRP) tagged delF508-CFTR (Homo sapiens, UniProt P13569, DEL508-508)
T1 construct: expressed in transfected cells
Assay: Measurement of delF508-CFTR-HRP surface expression in CFBE41o- cells;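 as to DelF508-CFTR-HRP Amax %: percent efficacy relative to reference corrector lumacaftor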
Type: cell-based
Settings: CFBE41o- cells; for Emax: read-out: DelF508-CFTR-HRP Amax %; for EC50: read-out: DelF508-CFTR-HRP EC50
How it was run: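 Surface-trafficked delF508-CFTR detected via extracellular HRP tag, read as luminescence from a membrane-impermeant substrate in CFBE41o- cells. Cells pre-induced 48h with 500 ng/mL doxycycline, then exposed 24h at 37° C to a 10-point, 3-fold dilution series from 10 μM (DMSO ≤0.5%). Triplicate dose-responses fitted logistically for EC50 after per-plate normalization; fold change versus reference compound.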

[1] = delF508-CFTR-HRP surface expression
[2] = mean of at least two replicates

T1 sequence (P13569 with tags, fused parts or gaps DEL508-508): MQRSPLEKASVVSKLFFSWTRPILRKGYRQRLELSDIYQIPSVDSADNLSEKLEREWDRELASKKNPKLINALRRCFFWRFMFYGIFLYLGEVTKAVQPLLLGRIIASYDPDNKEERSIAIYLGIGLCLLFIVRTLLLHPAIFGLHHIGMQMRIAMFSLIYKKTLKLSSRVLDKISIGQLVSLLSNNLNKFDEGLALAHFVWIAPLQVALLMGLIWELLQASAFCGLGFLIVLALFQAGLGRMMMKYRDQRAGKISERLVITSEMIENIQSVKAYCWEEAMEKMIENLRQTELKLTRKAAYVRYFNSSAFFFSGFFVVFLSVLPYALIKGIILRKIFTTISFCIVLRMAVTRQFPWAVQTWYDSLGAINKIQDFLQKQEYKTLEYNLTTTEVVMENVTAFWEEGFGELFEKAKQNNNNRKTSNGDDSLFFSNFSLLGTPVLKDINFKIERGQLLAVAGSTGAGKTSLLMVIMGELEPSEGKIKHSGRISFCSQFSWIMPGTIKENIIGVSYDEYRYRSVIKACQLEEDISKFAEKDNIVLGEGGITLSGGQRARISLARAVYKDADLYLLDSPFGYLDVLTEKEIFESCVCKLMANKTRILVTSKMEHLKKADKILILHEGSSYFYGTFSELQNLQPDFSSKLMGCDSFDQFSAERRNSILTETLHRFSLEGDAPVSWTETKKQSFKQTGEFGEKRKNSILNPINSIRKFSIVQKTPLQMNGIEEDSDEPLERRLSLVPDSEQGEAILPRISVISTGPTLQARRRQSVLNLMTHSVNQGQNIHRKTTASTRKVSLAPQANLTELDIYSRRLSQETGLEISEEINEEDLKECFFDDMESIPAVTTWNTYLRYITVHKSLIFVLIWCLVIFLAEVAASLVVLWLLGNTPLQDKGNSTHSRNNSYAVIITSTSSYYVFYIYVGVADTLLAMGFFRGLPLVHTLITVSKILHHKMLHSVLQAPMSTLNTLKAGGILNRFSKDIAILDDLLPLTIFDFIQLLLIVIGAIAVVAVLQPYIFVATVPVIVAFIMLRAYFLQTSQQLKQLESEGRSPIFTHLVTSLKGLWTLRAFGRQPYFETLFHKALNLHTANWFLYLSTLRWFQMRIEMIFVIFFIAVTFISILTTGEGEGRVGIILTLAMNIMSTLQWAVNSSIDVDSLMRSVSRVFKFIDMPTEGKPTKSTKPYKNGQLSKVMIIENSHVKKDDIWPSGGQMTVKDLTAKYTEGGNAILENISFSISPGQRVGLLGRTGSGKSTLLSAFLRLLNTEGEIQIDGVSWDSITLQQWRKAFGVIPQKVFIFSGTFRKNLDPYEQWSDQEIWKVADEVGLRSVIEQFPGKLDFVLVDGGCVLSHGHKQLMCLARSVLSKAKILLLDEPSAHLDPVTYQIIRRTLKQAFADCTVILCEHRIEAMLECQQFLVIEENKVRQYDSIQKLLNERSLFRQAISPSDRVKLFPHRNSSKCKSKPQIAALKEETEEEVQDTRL

SMILES	Emax [1]	EC50 [1]	EC50 [2]	Emax (surface expression Amax)
Cc1ccccc1-c1nc(NS(=O)(=O)c2cccc(N[C@@H]3CCNC[C@H]3O)n2)ccc1C(F)(F)F [Example 114, 6-(((3R,4R)-3-hydroxypiperidin-4-yl)amino)-N-(6-(o-tolyl)-5-(trifluoromethyl)pyridin-2-yl)pyridine-2-sulfonamide Hydrochloride]	66.2%	3.63 µM	–	–
O=C(O)[C@]12CC[C@H](O1)[C@H](Nc1cccc(S(=O)(=O)Nc3ccc(C(F)(F)F)c(-c4ccccc4C4CC4)n3)n1)C2 (racemic) [Example 438, rac-(1RS,3RS,4SR)-3-((6-(N-(6-(2-cyclopropylphenyl)-5-(trifluoromethyl)pyridin-2-yl)sulfamoyl)pyridin-2-yl)amino)-7-oxabicyclo[2.2.1]heptane-1-carboxylic Acid]	–	–	1.98 µM	53.4%
Cc1ccccc1-c1nc(NS(=O)(=O)c2cccc(N3C[C@H](C(=O)O)CC[C@@H]3C)n2)ccc1C(F)(F)F [Example 464]	–	–	2.43 µM	816%
Cc1ccccc1-c1nc(NS(=O)(=O)c2cccc(NC3CCCC(C(=O)O)C3)n2)ccc1C(F)(F)F (mixture of isomers) [Example 460, 3-((6-(N-(6-(o-tolyl)-5-(trifluoromethyl)pyridin-2-yl)sulfamoyl)pyridin-2-yl)amino)cyclohexanecarboxylic acid]	–	–	1.81 µM	362%
Nc1cccc(S(=O)(=O)Nc2ccc(Cl)c(-c3c(F)cc(F)cc3F)n2)n1 [Example 86, 6-amino-N-(5-chloro-6-(2,4,6-trifluorophenyl)pyridin-2-yl)pyridine-2-sulfonamide]	108%	3.53 µM	–	–
C[C@@]1(C(=O)O)CCCN(c2cccc(S(=O)(=O)Nc3cccc(-c4ccccc4C4CC4)n3)n2)C1 [Example 405, (R)-1-(6-(N-(6-(2-cyclopropylphenyl)pyridin-2-yl)sulfamoyl)pyridin-2-yl)-3-methylpiperidine-3-carboxylic Acid]	–	–	2.48 µM	235%
Cc1ccccc1-c1nc(NS(=O)(=O)c2cccc(N[C@@H]3CCC[C@@H](C(=O)O)C3)n2)ccc1C(F)(F)F (relative stereo) [Example 463, (1,3-trans)-3-((6-(N-(6-(o-tolyl)-5-(trifluoromethyl)pyridin-2-yl)sulfamoyl)pyridin-2-yl)amino)cyclohexanecarboxylic Acid]	–	–	2.95 µM	410%
O=S(=O)(Nc1ccc(Cl)c(-c2ccccc2C(F)(F)F)n1)c1cccc(N[C@@H]2COC[C@H]2O)n1 [Example 126, N-(5-chloro-6-(2-(trifluoromethyl)phenyl)pyridin-2-yl)-6-(((3R,4S)-4-hydroxytetrahydrofuran-3-yl)amino)pyridine-2-sulfonamide]	235%	2.18 µM	–	–
CCCc1ccccc1-c1nc(NS(=O)(=O)c2cccc(N3CCC(C)(C(=O)O)CC3)n2)ccc1C(F)(F)F [Example 398, 4-methyl-1-(6-(N-(6-(2-propylphenyl)-5-(trifluoromethyl)pyridin-2-yl)sulfamoyl)pyridin-2-yl)piperidine-4-carboxylic Acid]	–	–	0.615 µM	711%
COC(=O)C1(NC(=O)OC(C)(C)C)CCN(c2cccc(S(=O)(=O)Nc3ccc(Cl)c(-c4c(C)cccc4C)n3)n2)CC1 [Example 267, methyl 4-{[(tert-butoxy)carbonyl]amino}-1-(6-{[5-chloro-6-(2,6-dimethylphenyl)pyridin-2-yl]sulfamoyl}pyridin-2-yl)piperidine-4-carboxylate]	887%	1.26 µM	–	–

The remaining lines, values ahead:

Emax [1]	EC50 [1]	EC50 [2]	Emax (surface expression Amax)	SMILES
197%	2.64 µM	–	–	Cc1ccccc1-c1nc(NS(=O)(=O)c2cccc(N)n2)ccc1F [Example 70, 6-amino-N-(5-fluoro-6-(o-tolyl)pyridin-2-yl)pyridine-2-sulfonamide]
332%	0.683 µM	–	–	CC(C)c1ccccc1-c1nc(NS(=O)(=O)c2cccc(N)n2)ccc1Cl [Example 50, 6-amino-N-(5-chloro-6-(2-isopropylphenyl)pyridin-2-yl)pyridine-2-sulfonamide]
–	–	2.09 µM	728%	CC1(C(=O)O)CCCN(c2cccc(S(=O)(=O)Nc3ccc(C(F)(F)F)c(-c4ccccc4Cl)n3)n2)C1 (stereo not shown) [Example 399, 1-(6-(N-(6-(2-chlorophenyl)-5-(trifluoromethyl)pyridin-2-yl)sulfamoyl)pyridin-2-yl)-3-methylpiperidine-3-carboxylic Acid]
111%	1.54 µM	–	–	Cc1ccc(C#N)cc1-c1nc(NS(=O)(=O)c2cccc(N)n2)ccc1Cl [Example 84, 6-amino-N-(5-chloro-6-(5-cyano-2-methylphenyl)pyridin-2-yl)pyridine-2-sulfonamide]
–	–	1.7 µM	–	CCC1(C(=O)O)CCCN(c2cccc(S(=O)(=O)Nc3ccc(C(F)(F)F)c(-c4ccccc4C)n3)n2)C1 (stereo not shown) [Example 454, 3-ethyl-1-(6-(N-(6-(o-tolyl)-5-(trifluoromethyl)pyridin-2-yl)sulfamoyl)pyridin-2-yl)piperidine-3-carboxylic Acid]
178%	4.03 µM	–	–	O=S(=O)(Nc1ccc(Cl)c(-c2ccccc2Cl)n1)c1cccc(N2CCNCC2)n1 [Example 156, N-(5-chloro-6-(2-chlorophenyl)pyridin-2-yl)-6-(piperazin-1-yl)pyridine-2-sulfonamide]
59.1%	4.28 µM	–	–	Cc1c(F)cccc1-c1nc(NS(=O)(=O)c2cccc(N3CCn4cnnc4C3)n2)ccc1Cl [Example 146, N-(5-chloro-6-(3-fluoro-2-methylphenyl)pyridin-2-yl)-6-(5,6-dihydro-[1,2,4]triazolo[4,3-a]pyrazin-7(8H)-yl)pyridine-2-sulfonamide]
–	–	1.52 µM	334%	Cc1ccc(NS(=O)(=O)c2cccc(N3CCC[C@@](C)(C(=O)O)C3)n2)nc1-c1ccccc1C1CC1 [Example 406, (R)-1-(6-(N-(6-(2-cyclopropylphenyl)-5-methylpyridin-2-yl)sulfamoyl)pyridin-2-yl)-3-methylpiperidine-3-carboxylic Acid]
677%	1.49 µM	–	–	Cc1ccc(F)cc1-c1nc(NS(=O)(=O)c2cccc(N3CCN(C(=O)OC(C)(C)C)CC3)n2)ccc1Cl [Example 298, tert-butyl 4-(6-(N-(5-chloro-6-(5-fluoro-2-methylphenyl)pyridin-2-yl)sulfamoyl)pyridin-2-yl)piperazine-1-carboxylate]
159%	3.93 µM	–	–	Cc1ccc(F)cc1-c1nc(NS(=O)(=O)c2cccc(N3CCN4CC[C@H]3C4)n2)ccc1C(F)(F)F [Example 202, 6-((5S)-1,4-diazabicyclo[3.2.1]octan-4-yl)-N-(6-(5-fluoro-2-methylphenyl)-5-(trifluoromethyl)pyridin-2-yl)pyridine-2-sulfonamide]
280%	4.51 µM	–	–	CC1(C(=O)O)CCN(c2cccc(S(=O)(=O)Nc3ccc(Cl)c(-c4ccccc4Cl)n3)n2)CC1 [Example 239, 1-(6-(N-(5-chloro-6-(2-chlorophenyl)pyridin-2-yl)sulfamoyl)pyridin-2-yl)-4-methylpiperidine-4-carboxylic Acid]
9.1%	2.3 µM	–	–	Cc1ccccc1-c1nc(NS(=O)(=O)c2cccc(N3CC(C(=O)O)C3)n2)ccc1C(F)(F)F [Example 330, 1-(6-(N-(6-(o-tolyl)-5-(trifluoromethyl)pyridin-2-yl)sulfamoyl)pyridin-2-yl)azetidine-3-carboxylic Acid]
